± gives the standard deviation of the averaged measurements.
How the values were obtained:
CELECOXIB [1] = compound: T1, Cc1ccc(-c2cc(C(F)(F)F)nn2-c2ccc(S(N)(=O)=O)cc2)cc1 [CELECOXIB]; assay: surviving fraction relative to DMSO-only wells; higher = less growth inhibition; settings: exposure time: 5 days
Procedure, shortened: (§1)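 Viability was determined by CellTiter-Glo luminescence, expressed as surviving fraction normalised to the median of DMSO-only wells. The cells were log-phase tumour cell lines seeded at 250–500 per well in 384-well plates and, after 24 hours, exposed continuously for five days to inhibitors at 0.5, 1, 5, 10, 50, 100, 500 and 1000 nM. Three screens per line were run, keeping only lines with replicate Pearson r >0.7 and median Z' >0.3.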

CAMPTOTHECIN [2] = compound: T2, CC[C@@]1(O)C(=O)OCc2c1cc1n(c2=O)Cc2cc3ccccc3nc2-1 [CAMPTOTHECIN]; assay: as above; settings: exposure time: 5 days
Procedure, shortened: as §1

[3] = compound: CC(=O)NCC(=O)N1[C@@H]2CC[C@H]1c1ccc(Nc3ncc(C(F)(F)F)c(NC4CCC4)n3)cc12; assay: as above; settings: exposure time: 5 days
Procedure, shortened: as §1

CARBOPLATIN [4] = compound: T3, O=C(O)C1(C(=O)O)CCC1.[NH2-].[NH2-].[Pt+2] [CARBOPLATIN]; assay: as above; settings: exposure time: 5 days
Procedure, shortened: as §1

OSI-906 [5] = compound: T4, C[C@]1(O)C[C@@H](c2nc(-c3ccc4ccc(-c5ccccc5)nc4c3)c3c(N)nccn32)C1 [OSI-906]; assay: as above; settings: exposure time: 5 days
Procedure, shortened: as §1

YM155 [6] = compound: T5, COCC[n+]1c2c(n(Cc3cnccn3)c1C)C(=O)c1ccccc1C2=O [YM155]; assay: as above; settings: exposure time: 5 days
Procedure, shortened: as §1

PACLITAXEL [7] = compound: T6, CC(=O)O[C@H]1C(=O)[C@@]2(C)[C@H]([C@H](OC(=O)c3ccccc3)[C@]3(O)C[C@H](OC(=O)[C@H](O)[C@@H](NC(=O)c4ccccc4)c4ccccc4)C(C)=C1C3(C)C)[C@]1(OC(C)=O)CO[C@@H]1C[C@@H]2O [PACLITAXEL]; assay: as above; settings: exposure time: 5 days
Procedure, shortened: as §1

GEFITINIB [8] = compound: T7, COc1cc2ncnc(Nc3ccc(F)c(Cl)c3)c2cc1OCCCN1CCOCC1 [GEFITINIB]; assay: as above; settings: exposure time: 5 days
Procedure, shortened: as §1

[9] = compound: CC(=O)c1c(C)c2cnc(Nc3ccc(N4CCNCC4)cn3)nc2n(C2CCCC2)c1=O; assay: as above; settings: exposure time: 5 days
Procedure, shortened: as §1

CELECOXIB [10] = compound: T1, CELECOXIB; assay: area under dose-response curve of surviving fraction (unscaled, Aref=0) (surviving fraction x log10(nM)); higher = more resistant; settings: exposure time: 5 days; dose range 0.5-1000 nM
Procedure, shortened: (§2)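 Tumour cell lines in 384-well plates were exposed for five days to eight inhibitor concentrations from 0.5 to 1000 nM. Viability was read by CellTiter-Glo luminescence, normalised to DMSO-only wells, in three screens per line. Dose-response survival curves were fitted to surviving fractions by 3-parameter logistic regression in the drc R package. Area under the curve is the unscaled activity area (Aref = 0) over log10 dose.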

CAMPTOTHECIN [11] = compound: T2, CAMPTOTHECIN; assay: as above; settings: exposure time: 5 days; dose range 0.5-1000 nM
Procedure, shortened: as §2

[12] = compound: CC(=O)NCC(=O)N1[C@@H]2CC[C@H]1c1ccc(Nc3ncc(C(F)(F)F)c(NC4CCC4)n3)cc12; assay: as above; settings: exposure time: 5 days; dose range 0.5-1000 nM
Procedure, shortened: as §2

CARBOPLATIN [13] = compound: T3, CARBOPLATIN; assay: as above; settings: exposure time: 5 days; dose range 0.5-1000 nM
Procedure, shortened: as §2

OSI-906 [14] = compound: T4, OSI-906; assay: as above; settings: exposure time: 5 days; dose range 0.5-1000 nM
Procedure, shortened: as §2

YM155 [15] = compound: T5, YM155; assay: as above; settings: exposure time: 5 days; dose range 0.5-1000 nM
Procedure, shortened: as §2

PACLITAXEL [16] = compound: T6, PACLITAXEL; assay: as above; settings: exposure time: 5 days; dose range 0.5-1000 nM
Procedure, shortened: as §2

GEFITINIB [17] = compound: T7, GEFITINIB; assay: as above; settings: exposure time: 5 days; dose range 0.5-1000 nM
Procedure, shortened: as §2

[18] = compound: CC(=O)c1c(C)c2cnc(Nc3ccc(N4CCNCC4)cn3)nc2n(C2CCCC2)c1=O; assay: as above; settings: exposure time: 5 days; dose range 0.5-1000 nM
Procedure, shortened: as §2

PCI30 HEADNECK
surviving fraction (CELECOXIB [1]; 0.5 nM): 1.02 ± 0.095
surviving fraction (CELECOXIB [1]; 1 nM): 1 ± 0.057
surviving fraction (CELECOXIB [1]; 5 nM): 1.07 ± 0.044
surviving fraction (CELECOXIB [1]; 10 nM): 1.07 ± 0.046
surviving fraction (CELECOXIB [1]; 50 nM): 1.03 ± 0.12
surviving fraction (CELECOXIB [1]; 100 nM): 1.01 ± 0.013
surviving fraction (CELECOXIB [1]; 500 nM): 0.975 ± 0.051
surviving fraction (CELECOXIB [1]; 1000 nM): 0.928 ± 0.038
surviving fraction (CAMPTOTHECIN [2]; 0.5 nM): 0.908 ± 0.043
surviving fraction (CAMPTOTHECIN [2]; 1 nM): 0.912 ± 0.056
surviving fraction (CAMPTOTHECIN [2]; 5 nM): 0.857 ± 0.024
surviving fraction (CAMPTOTHECIN [2]; 10 nM): 0.497 ± 0.026
surviving fraction (CAMPTOTHECIN [2]; 50 nM): 0.437 ± 0.034
surviving fraction (CAMPTOTHECIN [2]; 100 nM): 0.487 ± 0.027
surviving fraction (CAMPTOTHECIN [2]; 500 nM): 0.356 ± 0.015
surviving fraction (CAMPTOTHECIN [2]; 1000 nM): 0.264 ± 0.015
surviving fraction ([3]; 0.5 nM): 0.891 ± 0.04
surviving fraction ([3]; 1 nM): 0.873 ± 0.077
surviving fraction ([3]; 5 nM): 1.01 ± 0.067
surviving fraction ([3]; 10 nM): 1.04 ± 0.084
surviving fraction ([3]; 50 nM): 0.964 ± 0.035
surviving fraction ([3]; 100 nM): 0.625 ± 0.032
surviving fraction ([3]; 500 nM): 0.567 ± 0.016
surviving fraction ([3]; 1000 nM): 0.564 ± 0.0087
surviving fraction (CARBOPLATIN [4]; 0.5 nM): 1.07 ± 0.036
surviving fraction (CARBOPLATIN [4]; 1 nM): 1.09 ± 0.04
surviving fraction (CARBOPLATIN [4]; 5 nM): 1.03 ± 0.021
surviving fraction (CARBOPLATIN [4]; 10 nM): 1.11 ± 0.093
surviving fraction (CARBOPLATIN [4]; 50 nM): 1.12 ± 0.067
surviving fraction (CARBOPLATIN [4]; 100 nM): 1.08 ± 0.03
surviving fraction (CARBOPLATIN [4]; 500 nM): 1.07 ± 0.079
surviving fraction (CARBOPLATIN [4]; 1000 nM): 1.07 ± 0.039
surviving fraction (OSI-906 [5]; 0.5 nM): 0.89 ± 0.027
surviving fraction (OSI-906 [5]; 1 nM): 0.947 ± 0.022
surviving fraction (OSI-906 [5]; 5 nM): 0.955 ± 0.076
surviving fraction (OSI-906 [5]; 10 nM): 1.05 ± 0.074
surviving fraction (OSI-906 [5]; 50 nM): 1.07 ± 0.051
surviving fraction (OSI-906 [5]; 100 nM): 1.01 ± 0.077
surviving fraction (OSI-906 [5]; 500 nM): 0.939 ± 0.075
surviving fraction (OSI-906 [5]; 1000 nM): 0.931 ± 0.033
surviving fraction (YM155 [6]; 0.5 nM): 0.933 ± 0.064
surviving fraction (YM155 [6]; 1 nM): 0.84 ± 0.075
surviving fraction (YM155 [6]; 5 nM): 0.793 ± 0.021
surviving fraction (YM155 [6]; 10 nM): 0.491 ± 0.017
surviving fraction (YM155 [6]; 50 nM): 0.04 ± 0.0027
surviving fraction (YM155 [6]; 100 nM): 0.024 ± 0.0017
surviving fraction (YM155 [6]; 500 nM): 0.021 ± 0.0017
surviving fraction (YM155 [6]; 1000 nM): 0.0233 ± 0.00058
surviving fraction (PACLITAXEL [7]; 0.5 nM): 0.721 ± 0.06
surviving fraction (PACLITAXEL [7]; 1 nM): 0.355 ± 0.044
surviving fraction (PACLITAXEL [7]; 5 nM): 0.199 ± 0.022
surviving fraction (PACLITAXEL [7]; 10 nM): 0.114 ± 0.03
surviving fraction (PACLITAXEL [7]; 50 nM): 0.0853 ± 0.011
surviving fraction (PACLITAXEL [7]; 100 nM): 0.0737 ± 0.016
surviving fraction (PACLITAXEL [7]; 500 nM): 0.0753 ± 0.016
surviving fraction (PACLITAXEL [7]; 1000 nM): 0.071 ± 0.0061
surviving fraction (GEFITINIB [8]; 0.5 nM): 0.996 ± 0.063
surviving fraction (GEFITINIB [8]; 1 nM): 1.01 ± 0.051
surviving fraction (GEFITINIB [8]; 5 nM): 1.071 ± 0.0044
surviving fraction (GEFITINIB [8]; 10 nM): 1.12 ± 0.017
surviving fraction (GEFITINIB [8]; 50 nM): 0.959 ± 0.095
surviving fraction (GEFITINIB [8]; 100 nM): 0.842 ± 0.028
surviving fraction (GEFITINIB [8]; 500 nM): 0.466 ± 0.026
surviving fraction (GEFITINIB [8]; 1000 nM): 0.393 ± 0.033
surviving fraction ([9]; 0.5 nM): 1.07 ± 0.085
surviving fraction ([9]; 1 nM): 1.04 ± 0.069
surviving fraction ([9]; 5 nM): 1.08 ± 0.1
surviving fraction ([9]; 10 nM): 1.07 ± 0.03
surviving fraction ([9]; 50 nM): 1.09 ± 0.062
surviving fraction ([9]; 100 nM): 0.931 ± 0.065
surviving fraction ([9]; 500 nM): 0.81 ± 0.06
surviving fraction ([9]; 1000 nM): 0.781 ± 0.016
area under dose-response curve (CELECOXIB [10]): 3.38
area under dose-response curve (CAMPTOTHECIN [11]): 1.92
area under dose-response curve [12]: 2.81
area under dose-response curve (CARBOPLATIN [13]): 3.57
area under dose-response curve (OSI-906 [14]): 3.26
area under dose-response curve (YM155 [15]): 1.32
area under dose-response curve (PACLITAXEL [16]): 0.529
area under dose-response curve (GEFITINIB [17]): 2.84
area under dose-response curve [18]: 3.11

Reference: the supplement of paper PMC6045584
